How the values were obtained:
[1] = test system: NCI-H446; test: Small-cell-lung cancer cell proliferation inhibition assay (PrestoBlue), NCI-H446; type: cell-based; settings: Homo sapiens, cMYC amplified SCLC cells, 72 hours
Method: (§1) Small cell lung cancer cells NCI-H82 (ATCC HTB-175, cMYC amplified), NCI-H446 (ATCC® HTB-171, cMYC amplified), and NCI-H69 (ATCC® HTB-119, MYCN amplified) were seeded at the density of 5000-10000 cells per well in 96-well plates. After 24 hours, the cancer cells were treated with each compound at various concentrations (0-10 μM) and then incubated for another 72 hours. IC50 values were computed based on duplicated 8-point titration.

[2] = test system: NCI-H82; test: Small-cell-lung cancer cell proliferation inhibition assay (PrestoBlue), NCI-H82; type: cell-based; settings: Homo sapiens, cMYC amplified SCLC cells, 72 hours
Method: as §1

[3] = biological target: T1, human Aurora A (amino acids 123-401) (Homo sapiens, UniProt O14965); test: Kinase-Glo Luminescent Kinase assay, in vitro inhibition of Aurora A kinase activity; type: biochemical; settings: recombinant GST-tagged Aurora A, 5.0 μM ATP, 37° C., 120 minutes
T1 construct: human Aurora A (amino acids 123-401) was expressed in Sf9 insect cells; GST; made in house; host or cells: Sf9 insect cells
T1 sequence (O14965 123-401): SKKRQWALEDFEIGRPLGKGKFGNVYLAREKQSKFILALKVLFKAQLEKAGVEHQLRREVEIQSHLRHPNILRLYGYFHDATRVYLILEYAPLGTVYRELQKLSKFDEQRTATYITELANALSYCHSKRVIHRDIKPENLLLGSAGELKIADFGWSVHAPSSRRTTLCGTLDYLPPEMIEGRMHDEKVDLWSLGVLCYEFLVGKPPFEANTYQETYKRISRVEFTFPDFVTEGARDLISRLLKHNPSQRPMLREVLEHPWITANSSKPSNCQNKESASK
Method: Recombinant glutathione S-transferase (GST)-tagged N-terminal truncated human Aurora A (amino acids 123-401) was expressed in Sf9 insect cells and then purified by glutathione affinity chromatography to afford recombinant Aurora A. Recombinant Aurora A (150 ng) was reacted with each test compound (100 nM) in 50 μL of 50 mM Tris-HCl pH 7.4, 10 mM NaCl, 10 mM MgCl2, 0.01% bovine serum albumin, 5.0 μM ATP, 1 mM dithiothreitol, 15 μM tetra(-LRRASLG) peptide at 37° C. for 120 minutes. Then, to the reaction was added 50 μL of Kinase-Glo Plus Reagent. The resulting mixture was incubated at 25° C. for 20 minutes. A 70 μL aliquot of the mixture was transferred to a black microliter plate. Luminescence was measured using a Wallac Vector 1420 multilabel counter (PerkinElmer, USA).

Structure (SMILES)	IC50 [1]	IC50 [2]	IC50 [3]
CCN1CCN(c2cc(Nc3cc(C)[nH]n3)nc(N[C@H]3CCN(C(=O)c4ccc(Cl)nc4Cl)C3)n2)CC1 [Compound 54]	< 1 µM	< 1 µM	< 0.1 µM
CCN1CCN(c2cc(Nc3cc(C)[nH]n3)nc(N[C@H]3CCN(C(=O)c4ccc(F)cc4F)C3)n2)CC1 [Compound 44]	< 1 µM	< 1 µM	< 0.1 µM
COC1CN(c2cc(Nc3cc(C)[nH]n3)nc(N[C@H]3CCN(C(=O)c4ccc(Cl)cc4F)C3)n2)C1 [Compound 19]	< 1 µM	< 1 µM	< 0.1 µM
Cc1cc(Nc2cc(N3CC(N(C)C)C3)nc(NC3CCN(C(=O)c4cccc(Cl)c4F)CC3)n2)n[nH]1 [Compound 89]	< 1 µM	< 1 µM	< 0.1 µM
CCN1CCN(c2cc(Nc3cc(C)[nH]n3)nc(N[C@H]3CCN(Cc4cccc(Cl)c4F)C3)n2)CC1 [Compound 31]	< 1 µM	< 1 µM	< 0.1 µM
Cc1cc(Nc2cc(C)[nH]n2)nc(NC2CCN(C(=O)c3cccc(Cl)c3Cl)CC2)n1 [Compound 121]	–	–	< 0.1 µM
Cc1cc(Nc2cc(N3CCN(C)CC3)nc(N[C@H]3CCN(C(=O)c4cccc(Cl)c4F)C3)n2)n[nH]1 [Compound 35]	< 1 µM	< 1 µM	< 0.1 µM
CCN1CCN(c2cc(Nc3cc(C)[nH]n3)nc(NC3CCN(Cc4cccc(Cl)c4F)CC3)n2)CC1 [Compound 88]	< 1 µM	< 1 µM	< 0.1 µM
Cc1cc(Nc2cc(N3CC[C@@H](N(C)C)C3)nc(N[C@H]3CCN(C(=O)c4cccc(Cl)c4F)C3)n2)n[nH]1 [Compound 20]	–	–	< 0.1 µM
CCN1CCN(c2cc(Nc3cc(C)[nH]n3)nc(N[C@H]3CCN(C(=O)c4ccc(Cl)cc4C)C3)n2)CC1 [Compound 34]	–	–	< 0.1 µM
COC[C@@H]1CCCN1c1cc(Nc2cc(C)[nH]n2)nc(N[C@H]2CCN(C(=O)c3cccc(Cl)c3F)C2)n1 [Compound 23]	–	–	< 0.1 µM
CCN1CCN(c2cc(Nc3cc(C)[nH]n3)nc(N[C@H]3CCN(C(=O)c4cc(Cl)ccc4F)C3)n2)CC1 [Compound 37]	< 1 µM	< 1 µM	< 0.1 µM
CCN1CCN(c2cc(Nc3ncc(C#N)s3)nc(N[C@H]3CCN(C(=O)c4ccc(Cl)cc4F)C3)n2)CC1 [Compound 1]	< 1 µM	< 1 µM	< 0.1 µM
CCN1CCN(c2cc(Nc3cc(C)[nH]n3)nc(N[C@H]3CCN(C(=O)c4ccc(Cl)c(C)c4)C3)n2)CC1 [Compound 33]	–	–	< 0.1 µM
CCCC(=O)n1nc(C)cc1Nc1cc(N2CCN(CC)CC2)nc(NC2CCN(C(=O)c3cccc(Cl)c3F)CC2)n1 [Compound 125]	< 1 µM	< 1 µM	–
COCCN(C)c1cc(Nc2cc(C)[nH]n2)nc(NC2CCN(C(=O)c3cccc(Cl)c3F)CC2)n1 [Compound 98]	< 1 µM	< 1 µM	–
CCN1CCN(c2cc(Nc3cc(C)[nH]n3)nc(N[C@H]3CCN(C(=O)c4cc(F)c(Cl)cc4F)C3)n2)CC1 [Compound 43]	< 1 µM	< 1 µM	< 0.1 µM
Cc1cc(Nc2cc(C)[nH]n2)nc(NC2CCN(Cc3cccc(Cl)c3F)CC2)n1 [Compound 119]	–	–	< 0.1 µM
Cc1cc(Nc2cc(N3CC(N(C)C)C3)nc(N[C@H]3CCN(C(=O)c4cccc(Cl)c4F)C3)n2)n[nH]1 [Compound 25]	< 1 µM	< 1 µM	< 0.1 µM
CCN1CCN(c2cc(Nc3cc(C)[nH]n3)nc(N(CC)C3CCN(C(=O)c4cccc(Cl)c4F)CC3)n2)CC1 [Compound 109]	–	–	< 0.1 µM
COC[C@H]1CCCN1c1cc(Nc2cc(C)[nH]n2)nc(N[C@H]2CCN(C(=O)c3cccc(Cl)c3F)C2)n1 [Compound 24]	–	–	< 0.1 µM
Cc1cc(Nc2cc(N3CCNCC3)nc(N[C@H]3CCN(C(=O)c4cccc(Cl)c4F)C3)n2)n[nH]1 [Compound 26]	< 1 µM	< 1 µM	< 0.1 µM
CCOC(=O)c1cnc(Nc2cc(N3CCN(C)CC3)nc(N[C@H]3CCN(C(=O)c4ccc(Cl)cc4F)C3)n2)s1 [Compound 2]	–	< 1 µM	< 0.1 µM
CCN1CCN(c2cc(Nc3cc(C)[nH]n3)nc(NC3CCN(C(=O)c4cccc(Cl)c4F)C3)n2)CC1 (centres unmarked) [Compound 58]	–	–	< 0.1 µM
CCN1CCN(c2cc(Nc3cc(C)[nH]n3)nc(N[C@H]3CCN(S(=O)(=O)c4cccc(Cl)c4F)C3)n2)CC1 [Compound 65]	< 1 µM	< 1 µM	< 0.1 µM

Structure (SMILES)	IC50 [1]	IC50 [2]	IC50 [3]
Cc1cc(Nc2nccs2)nc(NC2CCN(Cc3cccc(Cl)c3F)CC2)n1 [Compound 116]	–	–	< 0.1 µM
COCCN(C)c1cc(Nc2cc(C)[nH]n2)nc(N[C@H]2CCN(C(=O)c3ccc(Cl)cc3F)C2)n1 [Compound 17]	< 1 µM	< 1 µM	< 0.1 µM
CCN1CCN(c2cc(Nc3cc(C)[nH]n3)nc(N[C@H]3CCN(C(=O)c4cccc(Cl)c4F)C3)n2)CC1 [Compound 38]	< 1 µM	< 1 µM	< 0.1 µM
CCN1CCN(c2cc(Nc3cc(C)[nH]n3)nc(N[C@H]3CCN(C(=O)c4ccc(Cl)cc4)C3)n2)CC1 [Compound 29]	–	–	< 0.1 µM
CCN1CCN(c2cc(Nc3cc(C)[nH]n3)nc(N[C@H]3CCN(S(=O)(=O)c4ccc(Cl)cc4C)C3)n2)CC1 [Compound 62]	< 1 µM	< 1 µM	< 0.1 µM
Cc1cc(Nc2ccnc(NC3CCN(C(=O)c4cccc(F)c4F)CC3)n2)n[nH]1 [Compound 113]	–	–	< 0.1 µM
Cc1cc(Nc2cc(N3CCN(C)CC3)nc(N[C@H]3CCN(Cc4cccc(Cl)c4F)C3)n2)n[nH]1 [Compound 30]	–	–	< 0.1 µM
Cc1cc(Nc2cc(C)[nH]n2)nc(NC2CCN(C(=O)c3cccc(Cl)c3F)CC2)n1 [Compound 120]	–	–	< 0.1 µM
CCN1CCN(c2cc(Nc3cc(C)[nH]n3)nc(N[C@H]3CCN(C(=O)c4nc(Cl)ccc4F)C3)n2)CC1 [Compound 50]	< 1 µM	< 1 µM	< 0.1 µM
COC1CCN(c2cc(Nc3cc(C)[nH]n3)nc(N[C@H]3CCN(C(=O)c4cccc(Cl)c4F)C3)n2)CC1 [Compound 28]	–	–	< 0.1 µM
CC(=O)N1CCN(c2cc(Nc3cc(C)[nH]n3)nc(N[C@H]3CCN(C(=O)c4ccc(Cl)cc4F)C3)n2)CC1 [Compound 12]	< 1 µM	< 1 µM	< 0.1 µM
CCN1CCN(c2cc(Nc3cc(C)[nH]n3)nc(N[C@H]3CCN(C(=O)c4cccc(C(F)(F)F)c4F)C3)n2)CC1 [Compound 48]	< 1 µM	< 1 µM	< 0.1 µM
Cc1cc(Nc2cc(C)[nH]n2)nc(N(C)C2CCN(Cc3cccc(Cl)c3F)CC2)n1 [Compound 111]	–	–	< 0.1 µM
Cc1cc(Nc2nccs2)nc(N(C)C2CCN(Cc3cccc(Cl)c3F)CC2)n1 [Compound 115]	–	–	< 0.1 µM
CCN1CCN(c2cc(Nc3cc(C)nn3C(=O)C(C)C)nc(NC3CCN(C(=O)c4cccc(Cl)c4F)CC3)n2)CC1 [Compound 124]	< 1 µM	< 1 µM	–
Cc1cc(Nc2ccnc(NC3CCN(C(=O)c4cccc(Cl)c4Cl)CC3)n2)n[nH]1 [Compound 118]	–	–	< 0.1 µM
Cc1cc(Nc2cc(N3CC[C@H](N(C)C)C3)nc(N[C@H]3CCN(C(=O)c4cccc(Cl)c4F)C3)n2)n[nH]1 [Compound 22]	< 1 µM	< 1 µM	< 0.1 µM
CCN1CCN(c2cc(Nc3cc(C)nn3C(C)=O)nc(N[C@H]3CCN(C(=O)c4ccc(Cl)cc4F)C3)n2)CC1 [Compound 70]	< 1 µM	< 1 µM	–
Cc1cc(Nc2cc(N(C)CCN(C)C)nc(N[C@H]3CCN(C(=O)c4cccc(Cl)c4F)C3)n2)n[nH]1 [Compound 27]	< 1 µM	< 1 µM	< 0.1 µM
CCN1CCN(c2cc(Nc3cc(C)[nH]n3)nc(N[C@H]3CCN(C(=O)c4ccc(Cl)c(C(F)(F)F)c4)C3)n2)CC1 [Compound 49]	< 1 µM	< 1 µM	< 0.1 µM
Cc1cc(Nc2cc(N(C)CCN(C)C)nc(NC3CCN(C(=O)c4cccc(Cl)c4F)CC3)n2)n[nH]1 [Compound 95]	< 1 µM	< 1 µM	< 0.1 µM
Cc1cc(Nc2cc(N3CC[C@@H](N(C)C)C3)nc(N[C@H]3CCN(C(=O)c4ccc(Cl)cc4F)C3)n2)n[nH]1 [Compound 18]	< 1 µM	< 1 µM	–
Cc1cc(Nc2cc(C)[nH]n2)nc(NC2CCN(C(=O)c3cccc(F)c3F)CC2)n1 [Compound 114]	–	–	< 0.1 µM
Cc1cc(Nc2ccnc(NC3CCN(Cc4cccc(Cl)c4F)CC3)n2)n[nH]1 [Compound 110]	–	–	< 0.1 µM
